Where two headings read alike, the source gives them in different places.
Experiments:
Assay type in all cases: cell-based
Conditions in all cases: Homo sapiens, read-out: Proliferation inhibition IC50
[1] = test system: MCF-7 cells (human breast cancer cells); experiment: MCF-7 cell proliferation inhibitory assay (CellTiter-Glo)
Procedure: • 1). […] Resuspend an appropriate amount of cell suspension to 4000 cells/100 μL according to the count, mixed well and then put the corresponding number of cells into a 96-well plate by pipette. • 3). Each hole of the edge was sealed with 100 μL DPBS and put into an incubator for culture. • 4). Day 1 drug addition: Prepare the storage solution of the compound to be tested 1 hour in advance. 24 h after plating, the culture medium was gradiently diluted to a concentration twice the final concentration of each group. Take out the plated cells from the incubator and add 100 μL of the corresponding 2-fold concentration medium to each well by pipette.
Day 1 detected: Take out the plate to be tested and an appropriate amount of CTG in advance and rewarm it at room temperature in the dark. 50 μL of CTG was added to each well at 24 h. Shake with the oscillator for 5 minutes, and after balancing in the dark for 5 minutes, detect the luminescence value with a microplate reader; The mixture was shaken for 5 min, and after equilibration in the dark for 5 min, the luminescence value was detected with ELISA. • 6). Day 4 detection: Take an appropriate amount of CTG 1 h in advance and rewarm it at room temperature in the dark. At the same time, take out the plate to be tested from the incubator and leave it to equilibrate at room temperature for 30 minutes; 72 h after adding the drug, 100 μL of culture medium was sucked out with pipette carefully from each cell well, and 50 μL of CTG was added. The mixture was shaken for 5 min, and after equilibration in the dark for 5 min, the luminescence value was detected with ELISA analyzer. • 7). Data analysis and processed.
Collect data and convert it into survival rate: Inhibition rate (%)=(100−(OD value of compound-OD value on the first day)/(OD value of control well-OD value on the first day))×100%
(§1) Input the compound into graphpad prism to obtain the corresponding IC50 value.

[2] = test system: MDA-MB-435s cells (human melanoma cells); experiment: MDA-MB-435s cell proliferation inhibitory assay (CellTiter-Glo)
Procedure: (§2) • 1). […] Resuspend an appropriate amount of cell suspension to 3000 cells/100 μL according to the count, mixed well and then put the corresponding number of cells into a 96-well plate by pipette. • 3). Each hole of the edge was sealed with 100 μL DPBS and put into an incubator for culture. • 4). Day 1 drug addition: Prepare the storage solution of the compound to be tested 1 hour in advance. 24 h after plating, the culture medium was gradiently diluted to a concentration twice the final concentration of each group. Take out the plated cells from the incubator and add 100 μL of the corresponding 2-fold concentration medium to each well by pipette. • 5). Day 1 detected: Take out an appropriate amount of CTG 1 h in advance and the plate was allowed to equilibrate at room temperature for 30 min. 100 μL of CTG was added to each well and shaken for 5 mins, and then standed in the dark for 5 mins, the luminescence value was detected by ELISA. • 6). Day 4 detection: Take an appropriate amount of CTG 1 h in advance and rewarm it at room temperature in the dark. At the same time, take out the plate to be tested from the incubator and leave it to equilibrate at room temperature for 30 minutes; 72 h after adding the drug, 100 μL of culture medium was sucked out with pipette carefully from each cell well, and 100 μL of CTG was added. The mixture was shaken for 5 min, and after equilibration in the dark for 5 min, the luminescence value was detected with ELISA. • 7). Analyze data and write detailed experimental records.
Collect data and convert it into survival rate: Inhibition rate (%)=(100−(OD value of compound−OD value on the first day)/(OD value of control well-OD value on the first day))×100%
as §1

[3] = test system: MDA-MB-231 cells (human breast cancer cells); experiment: MDA-MB-231 cell proliferation inhibitory assay (CellTiter-Glo)
Procedure: as §2, §1

[4] = MCF7, MCF-7 cells, 72 h after adding the drug, Table 1
[5] = MDA-MB-435s cells, 72 h after adding the drug, Table 3
[6] = MDA-MB-231 cells, 72 h after adding the drug, Table 2

Row | Structure (SMILES) | IC50 ([1]; MCF7, 72 h) | IC50 ([2]; MDA-MB-435S, 72 h) | IC50 ([3]; MDA-MB-231, 72 h) | IC50 [1, 4] | IC50 [2, 5] | IC50 [3, 6]
1 | CC[C@@]1(O)C(=O)OCc2c1cc1n(c2=O)Cc2c-1nc1cc(F)c(C)cc1c2[C@@H](C)NC(C)=O [Compound 1f-1] | 15.2 nM | 5.8 nM | 110 nM | – | – | –
2 | CC[C@@]1(O)C(=O)OCc2c1cc1n(c2=O)Cc2c-1nc1cc(F)c(C)cc1c2[C@H](C)NC(=O)[C@@H](C)O [Example 15] | 10.6 nM | 4.2 nM | 141 nM | – | – | –
3 | CC[C@@]1(O)C(=O)OCc2c1cc1n(c2=O)Cc2c-1nc1cc(F)c(C)cc1c2[C@H](N)C(F)(F)F [Example 40b] | 3.5 nM | 2.65 nM | 25.7 nM | – | – | –
4 | CC[C@@]1(O)C(=O)OCc2c1cc1n(c2=O)Cc2c-1nc1cc(F)c(C)cc1c2[C@H](C)NCCO [Example 25] | 30.2 nM | 10.2 nM | 261 nM | – | – | –
5 | CC[C@@]1(O)C(=O)OCc2c1cc1n(c2=O)Cc2c-1nc1ccc(OC)cc1c2[C@H](C)O [Example 31c] | 10.2 nM | 5.8 nM | 18.3 nM | – | – | –
6 | CC[C@@]1(O)C(=O)OCc2c1cc1n(c2=O)Cc2c-1nc1cc(F)c(C)c(C)c1c2[C@H](C)N [Example 29a] | 4.5 nM | 2.1 nM | 10 nM | – | – | –
7 | CC[C@@]1(O)C(=O)OCc2c1cc1n(c2=O)Cc2c-1nc1ccc(O)cc1c2[C@H](C)O [Example 12-1] | 32.2 nM | 38.2 nM | 500 nM | – | – | –
8 | CC[C@@]1(O)C(=O)OCc2c1cc1n(c2=O)Cc2c-1nc1cc(F)c(C)cc1c2[C@@H](N)C(F)(F)F [Example 40a] | 6.6 nM | 4.12 nM | 50 nM | – | – | –
9 | [2H]C([2H])(O)C(=O)N[C@@H](C)c1c2c(nc3cc(F)c(C)cc13)-c1cc3c(c(=O)n1C2)COC(=O)[C@]3(O)CC [Example 20] | 7.8 nM | 2.7 nM | 120 nM | – | – | –
10 | CC[C@@]1(O)C(=O)OCc2c1cc1n(c2=O)Cc2c-1nc1cc(F)c(C)cc1c2[C@@H]1CCCN1 [Example 8] | 10.3 nM | 35.2 nM | 210 nM | – | – | –
11 | CC[C@@]1(O)C(=O)OCc2c1cc1n(c2=O)Cc2c-1nc1cc(F)c(C)cc1c2[C@H](C)NC(=O)[C@H](O)C(F)(F)F [Example 18] | 11.3 nM | 10.3 nM | 150 nM | – | – | –
12 | CC[C@@]1(O)C(=O)OCc2c1cc1n(c2=O)Cc2c-1nc1ccc(OC)cc1c2[C@H](C)N [Example 31a] | 8.2 nM | 3.8 nM | 15.1 nM | – | – | –
13 | CC[C@H](N)c1c2c(nc3ccccc13)-c1cc3c(c(=O)n1C2)COC(=O)[C@]3(O)CC [Example 9] | 25.2 nM | 25.3 nM | 310 nM | – | – | –
14 | CC[C@@]1(O)C(=O)OCc2c1cc1n(c2=O)Cc2c-1nc1cc(F)c(C)c(C)c1c2[C@@H](C)N [Example 29b] | 2.1 nM | 0.72 nM | 6.6 nM | – | – | –
15 | CC[C@@]1(O)C(=O)OCc2c1cc1n(c2=O)Cc2c-1nc1cc(F)c(C)cc1c2[C@H](C)N1CCN(C)CC1 [Example 42a] | 14.6 nM | 3.21 nM | 125 nM | – | – | –
16 | CC[C@@]1(O)C(=O)OCc2c1cc1n(c2=O)Cc2c-1nc1cc(F)c(OC)cc1c2[C@H](C)O [Example 30c] | 8.1 nM | 3.8 nM | 12.2 nM | – | – | –

Row | Structure (SMILES) | IC50 ([1]; MCF7, 72 h) | IC50 ([2]; MDA-MB-435S, 72 h) | IC50 ([3]; MDA-MB-231, 72 h) | IC50 [1, 4] | IC50 [2, 5] | IC50 [3, 6]
17 | CC[C@@]1(O)C(=O)OCc2c1cc1n(c2=O)Cc2c-1nc1cc3c(cc1c2[C@H](C)N)OCO3 [Example 35a] | 10.3 nM | 3.33 nM | 20.6 nM | – | – | –
18 | CC[C@@]1(O)C(=O)OCc2c1cc1n(c2=O)Cc2c-1nc1ccccc1c2[C@@H](C)N [Example 3] | 15.5 nM | 11.2 nM | 120 nM | – | – | –
19 | CC[C@@]1(O)C(=O)OCc2c1cc1n(c2=O)Cc2c-1nc1cc(F)c(C)cc1c2C1CNC1 [Example 37] | 5.1 nM | 2.33 nM | 90.8 nM | – | – | –
20 | CC[C@@]1(O)C(=O)OCc2c1cc1n(c2=O)Cc2c-1nc1cc3c(cc1c2[C@@H](C)N)OCCO3 [Example 36b] | 8.3 nM | 3.15 nM | 15.4 nM | – | – | –
21 | CC[C@@]1(O)C(=O)OCc2c1cc1n(c2=O)Cc2c-1nc1cc(F)c(C)cc1c2[C@@H](C)NCCNC [Example 25d] | – | – | – | 22.3 nM | 5.2 nM | 50.3 nM
22 | CC[C@@]1(O)C(=O)OCc2c1cc1n(c2=O)Cc2c-1nc1ccc(C(F)F)cc1c2[C@H](C)N [Example 32a] | 7.5 nM | 3.37 nM | 16.7 nM | – | – | –
23 | [2H]C([2H])([2H])[C@@H](N)c1c2c(nc3cc(F)c(C)cc13)-c1cc3c(c(=O)n1C2)COC(=O)[C@]3(O)CC [Example 43b] | – | – | – | 2.7 nM | 0.65 nM | 8 nM
24 | [2H]C([2H])([2H])c1cc2c([C@H](C)N)c3c(nc2cc1F)-c1cc2c(c(=O)n1C3)COC(=O)[C@]2(O)CC [Example 23] | 2.5 nM | 0.76 nM | 7.7 nM | – | – | –
25 | CC[C@@]1(O)C(=O)OCc2c1cc1n(c2=O)Cc2c-1nc1ccc(O)cc1c2[C@@H](C)N [Example 5] | 12.3 nM | 20.3 nM | 600 nM | – | – | –
26 | CC[C@@]1(O)C(=O)OCc2c1cc1n(c2=O)Cc2c-1nc1cc(F)c(C)cc1c2[C@H](C)N [Example 2] | 2.6 nM | 2.3 nM | 15.7 nM | – | – | –
27 | CC[C@@]1(O)C(=O)OCc2c1cc1n(c2=O)Cc2c-1nc1cc(F)c(C)cc1c2[C@H](C)NC(=O)CO [Example 13] | 8.3 nM | – | – | – | 2.8 nM | 80.2 nM
28 | CC[C@@]1(O)C(=O)OCc2c1cc1n(c2=O)Cc2c-1nc1cc(F)c(C)cc1c2[C@H](C)NC(=O)[C@@H](O)C1CC1 [Example 17] | 7.8 nM | 6.3 nM | 96.7 nM | – | – | –
29 | CC[C@@]1(O)C(=O)OCc2c1cc1n(c2=O)Cc2c-1nc1cc(F)c(C)cc1c2[C@H](C)NC(=O)C1CCCCC1O (stereo partly drawn) [Example 26] | 35.2 nM | 5.6 nM | 150 nM | – | – | –
30 | CC[C@@]1(O)C(=O)OCc2c1cc1n(c2=O)Cc2c-1nc1cc(F)c(C)cc1c2[C@H](C)[N+](C)(C)C [Example 24] | 10.2 nM | 6.6 nM | 80.1 nM | – | – | –
31 | CC[C@@H](N)c1c2c(nc3ccccc13)-c1cc3c(c(=O)n1C2)COC(=O)[C@]3(O)CC [Example 9R] | 55.3 nM | 15.3 nM | 180 nM | – | – | –

Source: patent publication US20240376120A1, “CAMPTOTHECIN COMPOUND, PREPARATION METHOD THEREFOR AND USE THEREOF” (priority 2021, published 2024)
